# Measurements published in patent US4797417A, “Furanone derivatives, process for preparation thereof and use thereof” (Fujisawa Pharmaceutical Co., Ltd., priority 1982, dated 1989).
# Molecular target: T1, aldose reductase (Oryctolagus cuniculus, UniProt P15122)
# T1 construct: The lenses were homogenized with 3 volumes of distilled water at 4° C; from tissue; host or cells: rabbit lens (homogenate, 10,000 G supernatant, dialysed)
# Assay: Aldose reductase-inhibiting activity, enzymatic assay (decrease in NADPH, D,L-glyceraldehyde substrate, rabbit lens enzyme solution)
# Assay type: biochemical
# Conditions: IC50 (M), concentration at which the aldose reductase activity is inhibited by 50%, pH 6.2, 35° C., 2 minutes
# Protocol: (1) Enzymatic assay method:
# The above reactants were mixed and reacted at 35° C. for 2 minutes and the decrease in amount of NADPH was measured with an Automatic Reaction Rate Analyzer Model LKB-8600 of LKB Producter A. B. The enzyme activity at achange in absorbance of 0.001 per minute was taken as unity.
# (2) Method for preparing an enzyme solution
# Rabbit eyes were enucleated and the lenses collected. The lenses were homogenized with 3 volumes of distilled water at 4° C. (All the subsequent procedures were also performed at 4° C.) and centrifuged at 10,000 G for 60 minutes. The supernatant was dialyzed against 2 liters of 0.05 M of saline solution and the interal fluid was used as the enzyme solution.
row,SMILES,IC50 [M]
1,"COC1=C(c2cccc(C(F)(F)F)c2)C(CCC(=O)O)OC1=O (stereo not drawn) [Example 20, 3-[4-Methoxy-5-oxo-3-(3-trifluoromethylphenyl)2,5-dihydro-2-furyl]propionicacid]",4.8e-07

# Same assay, conditions: concentration at which the aldose reductase activity is inhibited by 50%, pH 6.2, 35° C., 2 minutes, read-out: IC50
row,IC50 [M],SMILES
1,2.5e-06,"O=C(O)CCC1OC(=O)C(O)=C1c1ccccc1 (single isomer, unassigned) [Example 30-2, (d)-3-(4-hydroxy5-oxo-3-phenyl-2,5-dihydro-2-furyl)propionic acid]"
2,5.4e-07,"O=C(O)CCC1OC(=O)C(O)=C1c1ccccc1 (single isomer, unassigned) [Example 30-3, (l)-3-(4-hydroxy-5-oxo-3-phenyl-2,5-dihydro-2-furyl)propionic acid]"
3,2.2e-07,"CCOC(=O)CCC1OC(=O)C(OC)=C1c1ccccc1 (stereo not drawn) [Example 4, ethyl 3-(4-methoxy-5-oxo-3-phenyl-2,5-dihydro-2-furyl)propionate]"
4,5e-08,"CCCCCOC1=C(c2ccccc2)C(CCC(=O)O)OC1=O (stereo not drawn) [Example 17, 3-(5-oxo-4-pentyloxy-3-phenyl2,5-dihydro-2-furyl)propionicacid]"
5,2.2e-07,"COC1=C(c2ccccc2)C(CCC(=O)O)OC1=O (stereo not drawn) [Example 18, 3-(4-Methoxy-5-oxo-3-phenyl-2,5-dihydro-2-furyl)propionic acid]"
6,1.5e-07,"COC1=C(c2ccc(Cl)cc2)C(CCC(=O)O)OC1=O (stereo not drawn) [Example 19, 3-[3-(4-Chlorophenyl)-4-methoxy-5-oxo-2,5-dihydro-2-furyl]propionic acid]"
7,2e-07,"CCOC1=C(c2ccccc2)C(CCC(=O)O)OC1=O (stereo not drawn) [Example 22, 3-(4-ethoxy-5-oxo-3-phenyl2,5-dihydro-2-furyl)propionic acid]"
8,5.4e-07,"O=C(O)CCC1OC(=O)C=C1c1ccccc1 (stereo not drawn) [Example 29-8, 3-(2,5-dihydro5-oxo-3-phenyl-2-furyl)propionic acid]"
